# Experiments:
# [1] = system: PGE2-induced thermal hypersensitivity; assay: Prostaglandin E2-induced thermal hypersensitivity (warm-water tail withdrawal); format: in vivo, Spraque-Dawley rats; conditions: rat, 10 mg/kg p.o., single dose; assessed 30 min after PGE2 injection
# Procedure: Individually housed Spraque-Dawley rats had free access to rat chow and water. A 12-h light/12-h dark cycle was in effect (lights on from 6:00 am to 6:00 pm). Animal maintenance and research were conducted in accordance with the guidelines provided by the National Institutes of Health Committee on Laboratory Animal Resources. These subjects were used in the tests below.
# The terminal 10 cm of the tail (rat) was placed into a thermos bottle containing water warmed to 38, 42, 46, 50 or 54° C. The latency in seconds for the animal to remove the tail from the water was used as a measure of nociception. […]
# The ability of the compounds to reverse PGE2-induced thermal hypersensitivity was assessed using a single dose time-course procedure. […] sensitivity was assessed 30 min after PGE2 injection.
# Data Analysis—The temperature that produced a half-maximal increase in the tail-withdrawal latency (i.e., T10) was calculated from each temperature-effect curve. The T10 was determined by interpolation from a line drawn between the point above and the point below 10 sec on the temperature-effect curve. […] Reversal of thermal hypersensitivity was defined as a return to baseline of the temperature-effect curve and the T10 value and was calculated according to the following equation: […]
structure (smiles),measurement,setting,value
"CCOC(=O)c1cccc(OP(=O)(CCN2CCCNc3c2c(=O)c3=O)Oc2cccc(C(=O)OCC)c2)c1 [Example 1, Diethyl 3,3′-[({2-[8,9-dioxo-2,6-diazabicyclo[5.2.0]non-1(7)-en-2-yl]ethyl}phosphoryl)bis(oxy)]dibenzoate]",melting point,,116 to 117 °C
same,reversing PGE2-induced thermal hypersensitivity (% MPE),[1],40%

# From patent US7879826B2, “Derivatives of [2-(8,9-dioxo-2,6-diazabicyclo[5.2.0]non-1(7)-en-2-yl)alkyl]phosphonic acid and methods of making them” (Wyeth LLC, priority 2004, dated 2011)
